Measurements from patent publication US6677350B1, “Beta-fluoroethyl thiourea compounds and use” (priority 1999, dated 2004).
Where “and” joins values, the source holds several entries; their conditions need not be identical. Equal values may be shown once.

Tested on: M. tuberculosis H37Rv (ATCC 27294)
Assay: In vitro anti-tuberculosis screening, BACTEC 460 radiometric system, percent inhibition of growth
Format: cell-based, Mycobacterium tuberculosis
Settings: Mtb H37Rv; for Activity % inhibition at 12.5 μg/mL (chalcones) / Activity % inhibition at 12.5 μg/mL (chalcone-like compounds) / Activity % Inhibition at 12.5 μg/mL (flavones) / Activity % Inhibition at 12.5 μg/mL (flavanones) / Activity % Inhibition at 12.5 μg/mL (biflavonoids) / inhibition at 12.5 µg/mL: BACTEC 12B medium; for inhibition of the growth of Mtb: drug concentration 12.5 μg/mL; for Activity % inhibition at 12.5 μg/mL (chalcones) / Activity % inhibition at 12.5 μg/mL (chalcone-like compounds) / Activity % Inhibition at 12.5 μg/mL (flavones) / Activity % Inhibition at 12.5 μg/mL (flavanones) / anti-TB activity in words / Activity % Inhibition at 12.5 μg/mL (biflavonoids) / inhibition at 12.5 µg/mL: 12.5 μg/mL; for inhibition at 12.5 µg/mL: Mycobacterium tuberculosis, read-out: Activity % Inhibition at 12.5 μg/mL (biflavonoids)

## COc1cc(O)c(C(=O)/C=C/c2cc(OC)c(OC)c(OC)c2)c(O)c1 [Compound 15]
  Activity % inhibition at 12.5 μg/mL (chalcones): 0%

## Nc1ccc(C(=O)/C=C/c2cccnc2N)cc1 [Compound 66]
  Activity % inhibition at 12.5 μg/mL (chalcone-like compounds): 7%

## COc1ccc(-c2oc3ccc(F)cc3c(=O)c2O)cc1 [Compound 94]
  Activity % Inhibition at 12.5 μg/mL (flavones): 29%

## COc1ccc(C=CC(=O)c2ccc(F)cc2O)cc1 [Compound 22]
  Activity % inhibition at 12.5 μg/mL (chalcones): 63%

## COc1cc(OC)c2c(c1)OC(c1cc(OC)c(OC)c(OC)c1)CC2=O (centres unmarked) [Compound 144]
  Activity % Inhibition at 12.5 μg/mL (flavanones): 0%

## O=c1cc(-c2ccc(Cl)c([N+](=O)[O-])c2)oc2ccccc12 [Compound 95]
  Activity % Inhibition at 12.5 μg/mL (flavones): 28%

## COc1ccc(C(=O)/C=C/c2ccccc2)c(O)c1 [Compound 1]
  Activity % inhibition at 12.5 μg/mL (chalcones): 78%
  inhibition of the growth of Mtb: 78%

## COc1ccc2c(=O)cc(-c3ccccc3)oc2c1 [Compound 117]
  Activity % Inhibition at 12.5 μg/mL (flavones): 0%

## Nc1ncccc1C=CC(=O)c1cc(Cl)ccc1O [Compound 72]
  Activity % inhibition at 12.5 μg/mL (chalcone-like compounds): 0%

## COc1ccc(-c2oc3cc(I)ccc3c(=O)c2O)cc1 [Compound 91]
  Activity % Inhibition at 12.5 μg/mL (flavones): 43%

## CCOc1cc(O)c(C(=O)C=Cc2ccccc2)c(OCC)c1 [Compound 14]
  Activity % inhibition at 12.5 μg/mL (chalcones): 0%

## COc1ccc(C(=O)/C=C/c2ccco2)c(O)c1 [Compound 65]
  Activity % inhibition at 12.5 μg/mL (chalcone-like compounds): 3%

## O=c1cc(-c2ccccc2)oc2ccc(F)cc12 [Compound 112]
  anti-TB activity in words: weakly active or inactive
  Activity % Inhibition at 12.5 μg/mL (flavones): 7%

## COc1ccc(/C=C/C(=O)c2ccccn2)cc1 [Compound 76]
  Activity % inhibition at 12.5 μg/mL (chalcone-like compounds): 0%

## O=c1cc(-c2ccc(O)cc2)oc2ccccc12 [Compound 104]
  Activity % Inhibition at 12.5 μg/mL (flavones): 18%

## O=C(/C=C/c1ccc(Cl)cc1)c1ccccc1O [Compound 27]
  Activity % inhibition at 12.5 μg/mL (chalcones): 67%
  inhibition of the growth of Mtb: 67%

## O=c1cc(-c2ccccc2)oc2ccc(-c3ccccc3-c3cc(=O)c4ccccc4o3)cc12 [Compound 156, 6-2′′′′-Biflavone]
  Activity % Inhibition at 12.5 μg/mL (biflavonoids): 9%

## O=C(O)c1ccc(O)c(C(=O)C=Cc2cccc(I)c2)c1 [Compound 50]
  Activity % inhibition at 12.5 μg/mL (chalcones): 0%
  inhibition of the growth of Mtb: 0%

## O=c1cc(-c2ccc(O)c(-c3c(O)cc4oc(-c5ccc(O)cc5)cc(=O)c4c3O)c2)oc2cc(O)cc(O)c12 [Compound 166, Robustaflavone]
  inhibition at 12.5 µg/mL: 0%

## O=C(/C=C/c1ccco1)c1ccc(Br)cc1O [Compound 63]
  Activity % inhibition at 12.5 μg/mL (chalcone-like compounds): 17%

## O=c1cc(-c2ccccc2)oc2ccc(I)cc12 [Compound 124]
  anti-TB activity in words: weakly active or inactive
  Activity % Inhibition at 12.5 μg/mL (flavones): 0%

## COc1ccc(/C=C/C(=O)c2cccc(F)c2O)cc1 [Compound 23]
  Activity % inhibition at 12.5 μg/mL (chalcones): 45%

## O=C1CC(c2ccccc2)Oc2ccc(Cl)cc21 (centres unmarked) [Compound 138]
  Activity % Inhibition at 12.5 μg/mL (flavanones): 30%

## COc1cc(OC)c2c(=O)cc(-c3ccc(OC)c(I)c3)oc2c1 [Compound 126]
  Activity % Inhibition at 12.5 μg/mL (flavones): 0%

## COc1ccc(-c2oc3cc(F)ccc3c(=O)c2O)cc1 [Compound 85]
  anti-TB activity in words: did not change the activity
  Activity % Inhibition at 12.5 μg/mL (flavones): 50%

## O=c1cc(-c2ccccc2-c2cccc3c(=O)cc(-c4ccccc4)oc23)oc2ccccc12 [Compound 161, 8-2′′′-Biflavone]
  Activity % Inhibition at 12.5 μg/mL (biflavonoids): 0%

## Nc1ccccc1/C=C/C(=O)c1ccc(Br)cc1O [Compound 38]
  Activity % inhibition at 12.5 μg/mL (chalcones): 12%
  inhibition of the growth of Mtb: 8% and 12%

## O=C1c2c(O)cc(O)cc2O[C@H](c2ccc(O)cc2)[C@H]1c1c(O)cc(O)c2c(=O)cc(-c3ccc(O)c(O)c3)oc12 [Compound 171, Morelloflavone]
  inhibition at 12.5 µg/mL: 0%

## COc1cc(OC)c2c(c1)OC(c1cc(OC)c(OC)c(OC)c1)C(Br)(Br)C2=O (centres unmarked) [Compound 140]
  Activity % Inhibition at 12.5 μg/mL (flavanones): 16%

## O=C1CC(c2cccc(Br)c2)Oc2ccccc21 (centres unmarked) [Compound 134]
  Activity % Inhibition at 12.5 μg/mL (flavanones): 73%
  inhibition of the growth of Mtb: 73%
